Data reported in DBAASP.
In brackets after ≈: the same amount, converted by molar mass. Several values for one entry are separate records, joined by “and”; a condition that tells them apart may be missing. Identical values can stand only once.

What was measured:
Test in all cases: ≥ marks a high value that may be exact or a test limit, other limits are often not marked, values filed in µg/mL are converted to µM
[1] = tested on: Candida albicans CGMCC 2.2086
[2] = tested on: Candida parapsilosis CGMCC 2.3989
[3] = tested on: Candida tropicalis CGMCC 2.1975
[4] = tested on: Escherichia coli 078
[5] = tested on: Escherichia coli ATCC 25922
[6] = tested on: Escherichia coli K88
[7] = tested on: Escherichia coli K99
[8] = tested on: Escherichia coli UB1005
[9] = tested on: Pseudomonas aeruginosa ATCC 27853
[10] = tested on: Salmonella enterica subsp. enterica serovar Pullorum ATCC 7913
[11] = tested on: Salmonella enterica subsp. enterica serovar Typhimurium ATCC 14028
[12] = tested on: Salmonella enterica subsp. enterica serovar Typhimurium C77-31
[13] = tested on: Staphylococcus aureus ATCC 25923
[14] = tested on: Staphylococcus aureus ATCC 29213
[15] = tested on: Staphylococcus aureus ATCC 43300
[16] = tested on: Staphylococcus epidermidis ATCC 12228
[17] = tested on: Pseudomonas aeruginosa PAK
[18] = tested on: Staphylococcus aureus
[19] = tested on: Streptococcus gordonii Challis DL1
[20] = tested on: Streptococcus mitis ATCC 903
[21] = tested on: Streptococcus mutans UA159
[22] = tested on: Streptococcus sanguinis NY101
[23] = tested on: Candida albicans
[24] = tested on: Legionella pneumophila Lens

## CC[C@H](C)[C@H](NC(=O)[C@H](CCCN=C(N)N)NC(=O)[C@H](C)NC(=O)[C@H](C)N)C(=O)N[C@H](C(=O)N[C@@H](CC(C)C)C(=O)N[C@@H](CCCN=C(N)N)C(=O)N[C@@H](CC(=O)O)C(=O)N[C@@H](CCCN=C(N)N)C(=O)N[C@@H](Cc1ccccc1)C(=O)N[C@@H](CCCN=C(N)N)C(N)=O)[C@@H](C)CC [AARIILRDRFR]
[1]
  MIC: ≥ 128 µM
[2]
  MIC: ≥ 128 µM
[3]
  MIC: ≥ 128 µM
[4]
  MIC: ≥ 128 µM
[5]
  MIC: > 128 µM
[6]
  MIC: ≥ 128 µM
[7]
  MIC: ≥ 128 µM
[8]
  MIC: ≥ 128 µM
[9]
  MIC: > 128 µM
[10]
  MIC: ≥ 128 µM
[11]
  MIC: > 128 µM
[12]
  MIC: ≥ 128 µM
[13]
  MIC: > 128 µM
[14]
  MIC: > 128 µM
[15]
  MIC: > 128 µM
[16]
  MIC: > 128 µM

## CC[C@H](C)[C@H](NC(=O)[C@H](CCCN=C(N)N)NC(=O)[C@H](C)NC(=O)[C@H](C)N)C(=O)N[C@H](C(=O)N[C@@H](CC(C)C)C(=O)N[C@@H](CCCN=C(N)N)C(=O)N[C@@H](Cc1c[nH]c2ccccc12)C(=O)N[C@@H](Cc1ccccc1)C(=O)N[C@@H](CCCN=C(N)N)C(=O)N[C@@H](CCCN=C(N)N)C(N)=O)[C@@H](C)CC [AARIILRWFRR]
[2]
  MIC: 4 µM (≈ 5.83 µg/mL)
[3]
  MIC: 4 µM (≈ 5.83 µg/mL)
[4]
  MIC: 1.37 µM (≈ 2 µg/mL)
[6]
  MIC: 2 µM (≈ 2.91 µg/mL)
[7]
  MIC: 2 µM (≈ 2.91 µg/mL)
[8]
  MIC: 2 µM (≈ 2.91 µg/mL)
[9]
  MIC: 8 µM (≈ 11.7 µg/mL)
[10]
  MIC: 4 µM (≈ 5.83 µg/mL)
[11]
  MIC: 4 µM (≈ 5.83 µg/mL)
[12]
  MIC: 4 µM (≈ 5.83 µg/mL)
[13]
  MIC: 8 µM (≈ 11.7 µg/mL)
[15]
  MIC: 8 µM (≈ 11.7 µg/mL)
[16]
  MIC: 2 µM (≈ 2.91 µg/mL)

## CC[C@H](C)[C@H](NC(=O)[C@H](Cc1ccccc1)NC(=O)[C@H](Cc1cnc[nH]1)NC(=O)[C@H](CCCCN)NC(=O)[C@@H](NC(=O)[C@@H](N)Cc1ccccc1)[C@@H](C)CC)C(=O)N[C@@H](Cc1cnc[nH]1)C(=O)N[C@@H](CCCN=C(N)N)C(=O)N[C@@H](Cc1ccccc1)C(=O)N[C@@H](CO)C(=O)N[C@@H](C)C(=O)N[C@H](C(=O)N[C@@H](CCCN=C(N)N)C(=O)N[C@@H](Cc1c[nH]c2ccccc12)C(=O)N[C@@H](CCCN=C(N)N)C(=O)N[C@@H](CCCN=C(N)N)C(=O)N[C@@H](CC(C)C)C(=O)N[C@@H](CC(C)C)C(=O)N[C@@H](CCCCN)C(=O)N[C@@H](CCCCN)C(=O)N[C@@H](CC(C)C)C(=O)N[C@@H](Cc1cnc[nH]1)C(=O)N[C@@H](Cc1cnc[nH]1)C(=O)N[C@@H](CC(C)C)C(=O)N[C@@H](CC(C)C)C(=O)N[C@@H](Cc1cnc[nH]1)C(N)=O)[C@@H](C)O [FIKHFIHRFSATRWRRLLKKLHHLLH]
[17]
  MIC: 9.43 µM (≈ 32 µg/mL)
[18]
  MIC: 4.72 µM (≈ 16 µg/mL)
[19]
  MIC: 9.43 µM (≈ 32 µg/mL)
[20]
  MIC: 9.43 µM (≈ 32 µg/mL)
[21]
  MIC: 4.72 µM (≈ 16 µg/mL)
[22]
  MIC: 9.43 µM (≈ 32 µg/mL)

## CC[C@H](C)[C@H](NC(=O)[C@H](Cc1ccccc1)NC(=O)[C@H](Cc1cnc[nH]1)NC(=O)[C@H](CCCCN)NC(=O)[C@@H](NC(=O)[C@@H](N)Cc1ccccc1)[C@@H](C)CC)C(=O)N[C@@H](Cc1cnc[nH]1)C(=O)N[C@@H](CCCN=C(N)N)C(=O)N[C@@H](Cc1ccccc1)C(=O)N[C@@H](CO)C(=O)NCC(=O)NCC(=O)N[C@@H](CCCN=C(N)N)C(=O)N[C@@H](Cc1c[nH]c2ccccc12)C(=O)N[C@@H](CCCN=C(N)N)C(=O)N[C@@H](CCCN=C(N)N)C(=O)N[C@@H](CC(C)C)C(=O)N[C@@H](CC(C)C)C(=O)N[C@@H](CCCCN)C(=O)N[C@@H](CCCCN)C(=O)N[C@@H](CC(C)C)C(=O)N[C@@H](Cc1cnc[nH]1)C(=O)N[C@@H](Cc1cnc[nH]1)C(=O)N[C@@H](CC(C)C)C(=O)N[C@@H](CC(C)C)C(=O)N[C@@H](Cc1cnc[nH]1)C(N)=O [FIKHFIHRFSGGRWRRLLKKLHHLLH]
[17]
  MIC: 9.6 µM (≈ 32 µg/mL)
[18]
  MIC: 9.6 µM (≈ 32 µg/mL)
[19]
  MIC: 9.6 µM (≈ 32 µg/mL)
[20]
  MIC: 18.7 µM (≈ 62.5 µg/mL)
[21]
  MIC: 4.8 µM (≈ 16 µg/mL)
[22]
  MIC: 4.8 µM (≈ 16 µg/mL)

## CC[C@H](C)[C@H](NC(=O)CNC(=O)[C@H](CCCCN)NC(=O)[C@H](Cc1ccccc1)NC(=O)[C@H](CC(C)C)NC(=O)[C@H](CC(C)C)NC(=O)[C@H](Cc1ccccc1)NC(=O)[C@H](CCCCN)NC(=O)CNC(=O)[C@@H](NC(=O)[C@@H](N)CCCCN)[C@@H](C)CC)C(=O)N[C@@H](CCCCN)C(=O)N[C@@H](CCCCN)C(=O)N[C@H](C(=O)NCC(=O)N[C@@H](CCCCN)C(=O)N[C@@H](Cc1ccccc1)C(=O)N[C@@H](CC(C)C)C(N)=O)[C@@H](C)CC [KIGKFLLFKGIKKIGKFL]
[1]
  MIC: ≥ 32 µM
[23]
  MIC: 32 µM (≈ 66.5 µg/mL)
[2]
  MIC: ≥ 32 µM
[3]
  MIC: 8 µM (≈ 16.6 µg/mL)

## CC[C@H](C)[C@H](NC(=O)CNC(=O)[C@H](CCCCN)NC(=O)[C@@H](NC(=O)[C@H](CC(C)C)NC(=O)[C@H](CC(C)C)NC(=O)[C@@H](NC(=O)[C@H](CCCCN)NC(=O)CNC(=O)[C@@H](NC(=O)[C@@H](N)CCCCN)[C@@H](C)CC)C(C)C)C(C)C)C(=O)N[C@@H](CCCCN)C(=O)N[C@@H](CCCCN)C(=O)N[C@H](C(=O)NCC(=O)N[C@@H](CCCCN)C(=O)N[C@H](C(=O)N[C@@H](CC(C)C)C(N)=O)C(C)C)[C@@H](C)CC [KIGKVLLVKGIKKIGKVL]
[1]
  MIC: ≥ 32 µM
[23]
  MIC: > 64 µM and 32 µM
[2]
  MIC: ≥ 32 µM
[3]
  MIC: 16 µM (≈ 30.9 µg/mL)

## CC(C)C[C@H](NC(=O)[C@H](CC(C)C)NC(=O)[C@H](CCCCN)NC(=O)[C@H](CC(C)C)NC(=O)[C@H](CC(C)C)NC(=O)[C@H](CCC(N)=O)NC(=O)[C@H](CCCCN)NC(=O)[C@H](CC(C)C)NC(=O)[C@H](CC(C)C)NC(=O)[C@H](CCC(N)=O)NC(=O)[C@@H](N)CC(C)C)C(=O)N[C@@H](CCCCN)C(=O)N[C@@H](CCC(N)=O)C(=O)N[C@@H](Cc1ccccc1)C(N)=O [LQLLKQLLKLLKQF]
[17]
  MIC: 4.63 µM (≈ 8 µg/mL)
[18]
  MIC: 9.27 µM (≈ 16 µg/mL)
[19]
  MIC: 4.63 µM (≈ 8 µg/mL)
[20]
  MIC: 9.27 µM (≈ 16 µg/mL)
[21]
  MIC: 4.63 µM (≈ 8 µg/mL)
[22]
  MIC: 4.63 µM (≈ 8 µg/mL)

## CC[C@H](C)[C@H](NC(=O)[C@H](CC(C)C)NC(=O)[C@H](CC(=O)O)NC(=O)[C@@H](NC(=O)[C@@H](NC(=O)[C@H](Cc1ccccc1)NC(=O)[C@H](CCC(N)=O)NC(=O)[C@@H](N)CCSC)[C@@H](C)CC)[C@@H](C)O)C(=O)NCC(=O)N[C@@H](CCCCN)C(=O)N[C@@H](C)C(=O)N[C@H](C(=O)N[C@@H](CC(=O)O)C(=O)N[C@@H](Cc1ccccc1)C(=O)N[C@@H](Cc1ccccc1)C(=O)N[C@@H](CCCCN)C(=O)NCC(=O)N[C@@H](CC(C)C)C(=O)N[C@@H](Cc1ccccc1)C(=O)NCC(=O)N[C@@H](CC(N)=O)C(=O)N[C@@H](CCCCN)C(=O)O)C(C)C [MQFITDLIGKAVDFFKGLFGNK]
[24]
  MIC: 3.7 µM (≈ 9.21 µg/mL)

## CC[C@H](C)[C@H](NC(=O)[C@H](C)NC(=O)[C@H](CCCCN)NC(=O)[C@@H](NC(=O)[C@@H](NC(=O)[C@H](CCC(=O)O)NC(=O)[C@@H](NC(=O)[C@@H](NC(=O)[C@H](CCCCN)NC(=O)CNC(=O)[C@H](CC(C)C)NC(=O)[C@@H](NC(=O)[C@H](CC(=O)O)NC(=O)[C@H](CCC(N)=O)NC(=O)[C@H](Cc1ccccc1)NC(=O)[C@@H](NC(=O)[C@H](CCC(N)=O)NC(=O)[C@@H](N)CCSC)[C@@H](C)O)[C@@H](C)CC)C(C)C)[C@@H](C)CC)C(C)C)[C@@H](C)CC)C(=O)N[C@H](C(=O)N[C@@H](CC(=O)O)C(=O)N[C@@H](C)C(=O)N[C@@H](CCCCN)C(=O)O)C(C)C [MQTFQDILGKVIEVIKAIVDAK]
[24]
  MIC: 5.08 µM (≈ 12.5 µg/mL)

## CC[C@H](C)[C@H](NC(=O)CNC(=O)[C@H](CCCN=C(N)N)NC(=O)[C@H](Cc1ccccc1)NC(=O)[C@H](CC(C)C)NC(=O)[C@H](CC(C)C)NC(=O)[C@H](Cc1ccccc1)NC(=O)[C@H](CCCN=C(N)N)NC(=O)CNC(=O)[C@@H](NC(=O)[C@@H](N)CCCN=C(N)N)[C@@H](C)CC)C(=O)N[C@@H](CCCN=C(N)N)C(=O)N[C@@H](CCCN=C(N)N)C(=O)N[C@H](C(=O)NCC(=O)N[C@@H](CCCN=C(N)N)C(=O)N[C@@H](Cc1ccccc1)C(=O)N[C@@H](CC(C)C)C(N)=O)[C@@H](C)CC [RIGRFLLFRGIRRIGRFL]
[1]
  MIC: 8 µM (≈ 18 µg/mL)
[23]
  MIC: 8 µM and 5.66 µM
[2]
  MIC: 16 µM (≈ 35.9 µg/mL)
[3]
  MIC: 8 µM (≈ 18 µg/mL)
